Results: patent US8796474

Settings: from CC[C@@H](O)C(C)=C=C[C@@H](OCc1ccccc1)[C@H](C)CC(C)=C=C[C@H](OCc1ccccc1)[C@@H](C)C(=O)O; ester bond; 2,4,6-trichlorobenzoyl chloride / TEA / DMAP (Yamaguchi); toluene; 3.18 mM; 80.0 °C; 8.0 h

**Q.** Which ring closure, yield of all isomers does the source give for CC[C@H]1OC(=O)[C@H](C)[C@@H](OCc2ccccc2)C=C=C(C)C[C@@H](C)[C@H](OCc2ccccc2)C=C=C1C here?
**A.** The ring closure, yield of all isomers was 64%.
